Data: US20240287136A1, “PHARMACEUTICAL COMPOSITION AND THE USE THEREOF IN THE TREATMENT OF AUTOIMMUNE DISEASES” (Singapore Health Services Pte. Ltd., priority 2016, published 2024)
Ends that are not written are not given here.

Experiments:
Assay type in all cases: in vivo, human
[1] = tested on: patients with early rheumatoid arthritis; test: Phase II trial of mucosal tolerization to SEQ ID NO. 1: clinical outcome
Procedure: The model employed here is based on the hypothesis that immune tolerization to a T-cell epitope, such as SEQ ID NO. 1 that may be a contributor of inflammation in patients with rheumatoid arthritis, may lead to detectable clinical improvement. A total of 96 patients with early rheumatoid arthritis, who were not allowed on Methotrexate or biologics, were tested with mucosal tolerization to SEQ ID NO. 1. Patients are defined as “responders” if they meet the response criteria at any time during the study. […] SEQ ID NO. […]

[2] = tested on: peripheral blood mononuclear cells (PBMCs); test: Immune deviation in PBMCs of trial patients (cytokine production, PD-1 expression); conditions: for production of interleukin 10 (IL-10) / production of tumor necrosis factor α (TNFα): PBMCs / T cell subset of treated patients; for expression of Programmed Death 1 (PD-1) in PBMC: clinical responders, data not shown
Procedure: The model employed here is based on the hypothesis that immune tolerization to a T-cell epitope, such as SEQ ID NO. 1 that may be a contributor of inflammation in patients with rheumatoid arthritis, may lead to detectable clinical improvement. A total of 96 patients with early rheumatoid arthritis, who were not allowed on Methotrexate or biologics, were tested with mucosal tolerization to SEQ ID NO. 1. Patients are defined as “responders” if they meet the response criteria at any time during the study. […] SEQ ID NO.
1 (herein dubbed clinical responders) was observed (data not shown). PD-1 was first described as a contributor to T-cell anergy and exhaustion in chronic viral infections and cancer.
It is established that SEQ ID NO: 1 treatment was associated with an immune deviation in the T cell subset characterized by a decrease and an increase in tumor necrosis factor α (TNFα) and IL-10, respectively.

[3] = tested on: effector T cells (Teff) (CD4+CD127+); test: FACS of effector T cells of trial patients (PD-1, intracellular IL-17A, IL-23 receptor)
Procedure: (§1) FIG. 3. Effector and regulatory T cell function differ according to clinical response: a. effector T cells (Teff) (CD4+CD127+) at beginning of the trial (TO) and end of the study (Tend) were compared for PD-1 expression in both SEQ ID NO. 1 clinical responders and placebo clinical non-responders by FACS. b. FACS-sorted Teffwere analyzed for IL-17 and for RORC. Teff were stained intracellularly with IL-17A, and analyzed by FACS. c. regulatory T cell (Treg) (CD4+CD25++CD127−) frequency (% of PBMC) was determined in SEQ ID NO. 1—treated clinical responders by FACS. […] Values are the mean and s.e.m. d. Treg functionality in SEQ ID NO. […] (placebo clinical non-responders vs SEQ ID NO. 1 clinical responders, —76.21+/−3.665 vs 8.443+/−4.677, n=2 vs 3, t-test p0.0010). Values are the mean and s.e.m.
Therefore, a first hypothesis to test here is whether CD4+/CD127+T effector (Teff) cell anergy was induced by treatment with SEQ ID NO. 1. […] In addition, Teff were able to proliferate to conventional polyclonal stimuli (data not shown).
Further analysis of Teff in SEQ ID NO. […] Conversely, an increased expression in IL-17A expression was detected in placebo—treated clinical non-responders. […] 1 induced an immune deviation of Teff with a reduction in the ability to produce pro-inflammatory cytokines.
(§2) In FIG. 3b Y axis: % net change between Tend and T0 for both Teff producing IL-17A (first two columns, measured by FACS) and RORC expression (measured by TaqMan). […] Results were analyzed as a percentage of GAPDH. […] Values are the mean and s.e.m.

[4] = tested on: effector T cells (Teff) (CD4+CD127+); test: Gene expression in FACS-sorted Teff of trial patients (TaqMan)
Procedure: as §1, §2
Successful treatment with SEQ ID NO: 1 therefore induced an immune deviation of Teff cells by reducing their ability to produce pro-inflammatory cytokines. An increase in the number of Treg cells could be one possible explanation for this observation.

[5] = tested on: regulatory T cell (Treg) (CD4+CD25++CD127−); test: Treg functionality: suppression of Teff proliferation (CFSE dilution); conditions: SEQ ID NO. 1 clinical responders at Tend, n=3; mean and s.e.m.; placebo clinical non-responders —76.21+/−3.665
Procedure: as §1, with “p0.0010). […]” for “p0.0010). Values are the mean and s.e.m.”
FIG. 5. […] Treg ability to suppress Teff proliferation was determined by CFSE dilution. […] T(x)=Probability binning. % PD-1+Treg is expressed as percentage of the total Treg population (insets in both panels). d. […] The average pSTAT5 expression per cell for anti-PD-1 treatment, as determined by the average integral density per unit area, was calculated using ImageJ (Rasband, W. S., ImageJ, http://rsb.info.nih.gov/ij/, 1997-2009). […] Total Treg, PD-1+Treg and PD-1− Treg from clinical responders (n=S) at Tend were sorted and RNA expression of CTLA-4, FoxP3, IL-10 and TGF-β was measured by TaqMan. Data are expressed as 2(−dCT)×100 of GAPDH. […]

[6] = responders, end of the treatment regime (FIG. 9A)

QKRAAYDQYGHAAFE-NH2 [SEQ ID NO. 1]
safety of mucosal tolerization ([1]; 96 patients with early rheumatoid arthritis): safe
clinical efficacy ([1]; 96 patients with early rheumatoid arthritis, no Methotrexate or biologics): comparable to the use of Methotrexate alone
joint pain ([1]; after treatment withdrawal (FIG. 11E)): Sustained improvements
joint swelling ([1]; after treatment withdrawal (FIG. 11F)): Sustained improvements
Physician global assessment scores ([1]; one month after clinical withdrawal, versus placebo (FIG. 11D)): performed better than placebo
production of interleukin 10 (IL-10) [2]: increased production
production of tumor necrosis factor α (TNFα) [2]: decreased production
production of interleukin 10 (IL-10) ([2]; listed as SEQ ID NO: 1): increase
production of tumor necrosis factor α (TNFα) ([2]; listed as SEQ ID NO: 1): decrease
expression of Programmed Death 1 (PD-1) in PBMC [2]: significantly higher expression
expression of Programmed Death 1 (PD-1) in PBMC ([2]; listed as SEQ ID NO: 1): significantly higher levels
IL-23 receptor expression in Teff ([3]; SEQ ID NO. 1-treated clinical responders, not shown): decrease
Intracellular IL-17A expression in Teff cells ([3]; clinical responders, Tend, T0 8.003+/−0.07839%, n=3, mean and s.e.m.): 4.873+/−0.6933%
% of PD-1+ in the total Teff population ([3]; clinical responders, end of trial (Tend), T0 6.312+/−1.428, n=5, mean+/−s.e.m.): 4.930+/−1.433%
RORC gene expression in Teff ([4]; clinical responders, Tend, T0 3.382+/−0.684, mean and s.e.m.): 1.670+/−0.714 percentage of GAPDH
IFNγ expression in CD4+Teff cells [4, 6]: significantly lower levels
IL-17A expression in CD4+Teff cells [4, 6]: significantly lower levels
Treg functionality, % suppression of Teff proliferation [5]: 8.443+/−4.677 % suppression
